Results published in ChEMBL document CHEMBL1201862, “PubChem BioAssay data set” (2004).
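Where inhibition never reached the appropriate level, the endpoint shown equals the highest concentration tested. Otherwise, values were interpolated linearly from a five-concentration, 48-hour dose response in 96-well plates. Abbreviation: GI50, concentration required for 50% inhibition of growth.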 The source made the active and inactive calls. No stated cut-off is given here; in the data, active = GI50 up to about 1.1 µM and inactive = higher.

Assays:
Assay in all cases: NCI-60 cell line screen, 48 h
SK-MEL-2 = system: SK-MEL-2
UACC-62 = system: UACC-62
MDA-N = system: MDA-N
PC-3 = system: PC-3
SNB-19 = system: SNB-19
CCRF-CEM = system: CCRF-CEM
HCT-15 = system: HCT-15
OVCAR-4 = system: OVCAR-4
OVCAR-8 = system: OVCAR-8
CAKI-1 = system: CAKI-1
SW-620 = system: SW-620
786-0 = system: 786-0
MOLT-4 = system: MOLT-4
UO-31 = system: UO-31
MCF7 = system: MCF7
KM12 = system: KM12
HOP-62 = system: HOP-62
MDA-MB-231 = system: MDA-MB-231
SNB-75 = system: SNB-75
UACC-257 = system: UACC-257
BT-549 = system: BT-549
HCC 2998 = system: HCC 2998
HCT-116 = system: HCT-116
NCI-H460 = system: NCI-H460
ACHN = system: ACHN
Hs-578T = system: Hs-578T
SN12C = system: SN12C
SK-MEL-5 = system: SK-MEL-5
HL-60 = system: HL-60
MDA-MB-435 = system: MDA-MB-435
U-251 = system: U-251
SK-OV-3 = system: SK-OV-3
SF-539 = system: SF-539
IGROV-1 = system: IGROV-1
Malme-3M = system: Malme-3M
TK-10 = system: TK-10
HT-29 = system: HT-29
OVCAR-3 = system: OVCAR-3
M14 = system: M14
OVCAR-5 = system: OVCAR-5
NCI/ADR-RES = system: NCI/ADR-RES
EKVX = system: EKVX
HOP-92 = system: HOP-92
COLO 205 = system: COLO 205
K562 = system: K562
NCI-H23 = system: NCI-H23
NCI-H226 = system: NCI-H226
A549 = system: A549
SF-268 = system: SF-268
T47D = system: T47D
DU-145 = system: DU-145
SR = system: SR
A498 = system: A498
LOX IMVI = system: LOX IMVI
SF-295 = system: SF-295
NCI-H522 = system: NCI-H522
RPMI-8226 = system: RPMI-8226
SK-MEL-28 = system: SK-MEL-28
RXF 393 = system: RXF 393

Measured: GI50

C[N+](C)(CCNc1ccc(NCC[N+](C)(C)Cc2ccc([N+](=O)[O-])cc2)c2c1C(=O)c1ccccc1C2=O)Cc1ccc([N+](=O)[O-])cc1
> 100 µM: HCT-15
inactive: SK-MEL-2 > 100 µM | UACC-62 > 100 µM | MDA-N > 100 µM | PC-3 > 100 µM | SNB-19 > 100 µM | CCRF-CEM > 100 µM | OVCAR-4 > 100 µM | OVCAR-8 > 100 µM | CAKI-1 > 100 µM | SW-620 > 100 µM | 786-0 > 100 µM | MOLT-4 > 100 µM | UO-31 > 100 µM | MCF7 > 100 µM | KM12 > 100 µM | HOP-62 > 100 µM | MDA-MB-231 > 100 µM | SNB-75 > 100 µM | UACC-257 > 100 µM | BT-549 > 100 µM | HCC 2998 > 100 µM | HCT-116 > 100 µM | NCI-H460 > 100 µM | ACHN > 100 µM | Hs-578T > 100 µM | SN12C > 100 µM | SK-MEL-5 > 100 µM | HL-60 > 100 µM | MDA-MB-435 > 100 µM | U-251 > 100 µM | SK-OV-3 > 100 µM | SF-539 > 100 µM | IGROV-1 > 100 µM | Malme-3M > 100 µM | TK-10 > 100 µM | HT-29 > 100 µM | OVCAR-3 > 100 µM | M14 > 100 µM | OVCAR-5 > 100 µM | NCI/ADR-RES > 100 µM | EKVX > 100 µM | HOP-92 > 100 µM | COLO 205 > 100 µM | K562 70.3 µM | NCI-H23 > 100 µM | NCI-H226 > 100 µM | A549 > 100 µM | SF-268 > 100 µM | T47D > 100 µM | DU-145 > 100 µM | SR > 100 µM | A498 > 100 µM | LOX IMVI > 100 µM | SF-295 > 100 µM | NCI-H522 > 100 µM

Cc1c(CCN2CCOCC2)c(N2CCOCC2)n2c(nc3ccccc32)c1C#N
> 10 µM: HCT-15
inactive: UACC-62 > 10 µM | MDA-N > 10 µM | PC-3 > 10 µM | SNB-19 > 10 µM | CCRF-CEM > 10 µM | OVCAR-4 > 10 µM | OVCAR-8 > 10 µM | CAKI-1 > 10 µM | SW-620 > 10 µM | 786-0 8.95 µM | MOLT-4 > 10 µM | UO-31 > 10 µM | MCF7 > 10 µM | KM12 > 10 µM | HOP-62 > 10 µM | MDA-MB-231 > 10 µM | SNB-75 > 10 µM | UACC-257 > 10 µM | BT-549 > 10 µM | HCT-116 > 10 µM | NCI-H460 > 10 µM | ACHN > 10 µM | Hs-578T 3.77 µM | SN12C > 10 µM | SK-MEL-5 > 10 µM | HL-60 > 10 µM | MDA-MB-435 > 10 µM | RPMI-8226 > 10 µM | U-251 > 10 µM | SK-OV-3 > 10 µM | SF-539 > 10 µM | IGROV-1 > 10 µM | Malme-3M > 10 µM | TK-10 > 10 µM | HT-29 > 10 µM | OVCAR-3 > 10 µM | M14 > 10 µM | OVCAR-5 > 10 µM | NCI/ADR-RES > 10 µM | SK-MEL-28 > 10 µM | EKVX > 10 µM | HOP-92 > 10 µM | COLO 205 > 10 µM | K562 > 10 µM | NCI-H23 > 10 µM | NCI-H226 > 10 µM | A549 > 10 µM | SF-268 > 10 µM | T47D > 10 µM | DU-145 > 10 µM | SR > 10 µM | A498 6.31 µM | LOX IMVI > 10 µM | RXF 393 > 10 µM | SF-295 > 10 µM

NC(Cc1cc(Br)c(O)c(Br)c1)C(=O)O (centres undefined)
inactive: SK-MEL-2 > 100 µM | UACC-62 > 100 µM | MDA-N > 100 µM | PC-3 > 100 µM | SNB-19 > 100 µM | CCRF-CEM > 100 µM | OVCAR-4 > 100 µM | OVCAR-8 > 100 µM | CAKI-1 > 100 µM | SW-620 > 100 µM | 786-0 > 100 µM | MOLT-4 > 100 µM | MCF7 > 100 µM | KM12 > 100 µM | HOP-62 > 100 µM | MDA-MB-231 > 100 µM | SNB-75 > 100 µM | UACC-257 > 100 µM | BT-549 > 100 µM | HCT-116 > 100 µM | NCI-H460 > 100 µM | ACHN > 100 µM | Hs-578T > 100 µM | SN12C > 100 µM | SK-MEL-5 > 100 µM | HL-60 > 100 µM | MDA-MB-435 > 100 µM | RPMI-8226 > 100 µM | U-251 > 100 µM | SK-OV-3 > 100 µM | SF-539 > 100 µM | IGROV-1 > 100 µM | Malme-3M > 100 µM | TK-10 > 100 µM | HT-29 > 100 µM | OVCAR-3 > 100 µM | M14 > 100 µM | OVCAR-5 > 100 µM | NCI/ADR-RES > 100 µM | SK-MEL-28 > 100 µM | EKVX > 100 µM | HOP-92 > 100 µM | COLO 205 > 100 µM | K562 > 100 µM | NCI-H23 > 100 µM | NCI-H226 > 100 µM | A549 > 100 µM | SF-268 > 100 µM | T47D > 100 µM | DU-145 > 100 µM | SR > 100 µM | A498 > 100 µM | LOX IMVI > 100 µM | RXF 393 > 100 µM | SF-295 > 100 µM | NCI-H522 > 100 µM
> 100 µM: HCT-15

CC(=O)Oc1ccc(/C=C/C(=O)O[C@H]2CCCC[C@@H]2OC(=O)/C=C/c2ccc(OC(C)=O)c(OC(C)=O)c2)cc1OC(C)=O
inactive: SK-MEL-2 15.3 µM | UACC-62 4.84 µM | MDA-N 8.97 µM | PC-3 8.28 µM | SNB-19 4.71 µM | CCRF-CEM 2.75 µM | OVCAR-4 7.08 µM | OVCAR-8 8.61 µM | CAKI-1 5.41 µM | SW-620 2.24 µM | 786-0 4.57 µM | MOLT-4 2.64 µM | UO-31 3.54 µM | MCF7 13.8 µM | KM12 8.75 µM | HOP-62 7.38 µM | MDA-MB-231 17 µM | SNB-75 9.46 µM | UACC-257 11.8 µM | BT-549 13.2 µM | HCC 2998 13.8 µM | HCT-116 4.58 µM | NCI-H460 3.85 µM | ACHN 5.83 µM | Hs-578T 6.21 µM | SN12C 9.23 µM | SK-MEL-5 4.69 µM | MDA-MB-435 10.4 µM | RPMI-8226 4.07 µM | U-251 9.25 µM | SK-OV-3 11.8 µM | SF-539 6.38 µM | IGROV-1 4.09 µM | Malme-3M 15.6 µM | TK-10 6.93 µM | HT-29 5.47 µM | OVCAR-3 4.74 µM | M14 7.14 µM | OVCAR-5 12.3 µM | NCI/ADR-RES 19.2 µM | SK-MEL-28 12.8 µM | EKVX 17.1 µM | HOP-92 4.62 µM | COLO 205 16.7 µM | K562 5.75 µM | NCI-H23 8.75 µM | A549 6.87 µM | SF-268 8.17 µM | T47D 11.5 µM | DU-145 13.3 µM | SR 4.34 µM | A498 18.5 µM | LOX IMVI 2.49 µM | RXF 393 11.1 µM | SF-295 4.37 µM | NCI-H522 2.81 µM
5.13 µM: HCT-15

CN(C(=O)Cc1cc(Cl)c(Cl)cc1NC(=O)CN)[C@H]1CCCC[C@@H]1N1CCCC1
37 µM: HCT-15
inactive: SK-MEL-2 18.8 µM | UACC-62 16 µM | MDA-N 15.3 µM | PC-3 37.1 µM | SNB-19 45.8 µM | CCRF-CEM 27.5 µM | OVCAR-4 > 100 µM | OVCAR-8 88.3 µM | CAKI-1 > 100 µM | SW-620 62.7 µM | 786-0 16.3 µM | MOLT-4 > 100 µM | UO-31 33.8 µM | MCF7 28.6 µM | KM12 47.4 µM | HOP-62 > 100 µM | MDA-MB-231 23.3 µM | SNB-75 20.7 µM | UACC-257 18.6 µM | BT-549 35.1 µM | HCC 2998 16.6 µM | HCT-116 30 µM | NCI-H460 29.6 µM | ACHN 79.8 µM | Hs-578T 23.1 µM | SN12C 56.6 µM | HL-60 19.1 µM | MDA-MB-435 16.1 µM | RPMI-8226 30.8 µM | U-251 17.8 µM | SK-OV-3 > 100 µM | IGROV-1 > 100 µM | Malme-3M 20.8 µM | TK-10 37.9 µM | HT-29 20.7 µM | OVCAR-3 38.8 µM | M14 18.2 µM | OVCAR-5 > 100 µM | NCI/ADR-RES > 100 µM | EKVX > 100 µM | HOP-92 > 100 µM | K562 24.7 µM | NCI-H23 > 100 µM | A549 39.1 µM | SF-268 77.1 µM | T47D 25.7 µM | DU-145 > 100 µM | SR 29 µM | A498 20.2 µM | LOX IMVI 18.3 µM | RXF 393 68.7 µM | SF-295 24.2 µM
